Source: patent US5998521A, “Aqueous fluoropolymer compositions and method of preparing the same” (3M Innovative Properties Company, priority 1996, dated 1999)

Key:
[1] = Surface tension and critical micelle concentration of aqueous surfactant solutions; type: physicochemical; conditions: deionized water; for Surf. Tens.: at the CMC
Experimental: Critical Micelle Concentration (CMC): The critical micelle concentration is defined as the concentration at which further surface tension is no longer lowered with increasing levels of surfactant. To determine CMC, surface tension is measured as a function of surfactant concentration using a K-12 Processor Tensiometer in conjunction with a 665 Dosimat automatic surfactant injection device (also commercially available from Kruss GmbH). Surface tension is then plotted vs. log concentration and the data points are connected. The resulting curve has a nearly horizontal flat portion at concentrations above the CMC and has a negative steep slope at concentrations below the CMC. The CMC is defined as the lowest surfactant concentration in the horizontal flat portion of the curve.
(§1) Then the critical micelle concentration (CMC) was determined for each surfactant.
as §1

[2] = Thermogravimetric analysis of neat perfluorocarboxylate salts; type: physicochemical; conditions: neat salt, nitrogen, 10° C./min
Excerpt: Thermal degradation measurements were made on a series of neat perfluorocarboxylate salts, including several α-branched open chain structures (Examples N2-N9), a primarily linear open chain structure (Example N10-Fluorad™ FC-143 Fluorochemical Surfactant, commercially available from 3M Company, St. Paul, Minn.), and a closed chain (i.e., cyclic) structure (Example N11--made by the electrochemical fluorination of benzoic acid and hydrolysis in the presence of KOH, as described in U.S. Pat. No. 2,567,011 (Diesslin et al.)).
The perfluorocarboxylate salts were tested using a Perkin-Elmer TGA 7 thermogravimetric analysis apparatus and a salt sample size of approximately 5 mg, a heating rate of 10° C./min, and a nitrogen gas flow rate of 40-45 mL/min. Using the TGA 7 software, the following temperatures were recorded: (1) the onset temperature of decomposition, (2) the temperature at which 50% of the sample weight was lost, and (3) the temperature at which 90% of the sample weight was lost.

| Compound | Surf. Tens. ([1]; Table 3) [dynes/cm] | CMC ([1]; Table 3) [ppm] | Surf. Tens. ([1]; Table 5) [dynes/cm] | CMC ([1]; Table 5) [ppm] | other results |
| --- | --- | --- | --- | --- | --- |
| O=C([O-])CC[N+]1(CCCNC(=O)C(F)(C(F)(F)F)C(F)(F)C(F)(F)C(F)(F)C(F)(F)C(F)(F)C(F)(F)C(F)(F)F)CCOCC1 (centres unmarked) [Example K3] | 19.2 |  |  |  |  |
| C[N+](C)([O-])CCCNC(=O)C(F)(C(F)(F)F)C(F)(F)C(F)(F)C(F)(F)C(F)(F)C(F)(F)C(F)(F)C(F)(F)F (centres unmarked) [Example E1, C7 F15 CF(CF3)CONH(CH2)3 N^+ (CH3)2 O^-] | 16.3 | 20 |  |  |  |
| O=C(NCCC[N+]1(CCO)CCOCC1)C(F)(C(F)(F)F)C(F)(F)C(F)(F)C(F)(F)C(F)(F)C(F)(F)C(F)(F)C(F)(F)F (centres unmarked) [Example F5] | 20.8 |  |  |  |  |
| O=C(NCCOC(=O)C(F)(C(F)(F)F)C(F)(F)C(F)(F)C(F)(F)C(F)(F)C(F)(F)C(F)(F)C(F)(F)F)c1cc[n+]([O-])cc1 (centres unmarked) [Example E10] | 14.5 | 400 |  |  |  |
| O=C(O)C(F)(C(F)(F)F)C(F)(F)C(F)(F)C(F)(F)C(F)(F)C(F)(F)C(F)(F)C(F)(F)F (centres unmarked) [Example M27, C7 F15 CF(CF3)COO^- Li^+] |  |  | 24.1 | 3500 |  |
| O=C(O)C(F)(C(F)(F)F)C(F)(F)C(F)(F)C(F)(F)C(F)(F)C(F)(F)C(F)(F)C(F)(F)C(F)(F)F (centres unmarked) [Example M17, C8 F17 CF(CF3)COO^- H4 N^+] |  |  | 14.7 | 2300 | Temperature for: 50% loss [2]: 162 °C; Temperature for: 90% loss [2]: 184 °C; Temperature for: Onset [2]: 142 °C |
| O=C(O)C(F)(C(F)(F)F)C(F)(F)C(F)(F)C(F)(F)C(F)(F)C(F)(F)F (centres unmarked) [Example M15, C5 F11 CF(CF3)COO^- H4 N^+] |  |  | 22.1 | > 10000 | Temperature for: 50% loss ([2]; listed as N2): 178 °C; Temperature for: 90% loss ([2]; listed as N2): 188 °C; Temperature for: Onset ([2]; listed as N2): 166 °C |
| O=C(NCCOC(=O)C(F)(C(F)(F)F)C(F)(F)C(F)(F)C(F)(F)C(F)(F)C(F)(F)C(F)(F)F)c1cc[n+]([O-])cc1 (centres unmarked) [Example E11] | 15.5 | 1000 |  |  |  |
| O=C(O)C(F)(C(F)(F)F)C(F)(F)C(F)(F)C(F)(F)C(F)(F)C(F)(F)C(F)(F)C(F)(F)F (centres unmarked) [Example M26, C7 F15 CF(CF3)COO^- Na^+] |  |  | 19.4 | 3000 |  |
| C[N+](C)([O-])CCCNC(=O)C(F)(C(F)(F)F)C(F)(F)C(F)(F)C(F)(F)C(F)(F)C(F)(F)C(F)(F)F (centres unmarked) [Example E3, C6 F13 CF(CF3)CONH(CH2)3 N^+ (CH3)2 O^-] | 16.6 | 100 |  |  |  |
| O=C(O)C1(F)C(F)(F)C(F)(F)C(F)(F)C(F)(F)C1(F)F [U.S. Pat. No. 2,567,011, reference compound] |  |  |  |  | Temperature for: 50% loss [2]: 110 °C; Temperature for: 90% loss [2]: 120 °C; Temperature for: Onset [2]: 100 °C |
| CN(C)CCCN(CCCN(C)C)C(=O)C(F)(C(F)(F)F)C(F)(F)C(F)(F)C(F)(F)C(F)(F)C(F)(F)C(F)(F)C(F)(F)F (centres unmarked) [Example F9, C7 F15 CF(CF3)CON[C3 H6 N^+ (CH3)2 H]2 2[-OOCCH3]] | 22.0 | 1000 |  |  |  |
| O=C(OCCc1cccc[n+]1[O-])C(F)(C(F)(F)F)C(F)(F)C(F)(F)C(F)(F)C(F)(F)C(F)(F)C(F)(F)F (centres unmarked) [Example E12] | 18.3 | 8000 |  |  |  |
| C[N+](C)([O-])CCCNC(=O)C(F)(C(F)(F)F)C(F)(F)C(F)(F)C(F)(F)C(F)(F)C(F)(F)F (centres unmarked) [Example E2, C5 F11 CF(CF3)CONH(CH2)3 N^+ (CH3)2 O^-] | 17.5 | 500 |  |  |  |
| C[n+]1ccc(C(=O)NCCOC(=O)C(F)(C(F)(F)F)C(F)(F)C(F)(F)C(F)(F)C(F)(F)C(F)(F)C(F)(F)F)cc1 (centres unmarked) [Example F2] | 15.5 | 30 |  |  |  |
| O=C(OCCc1cccc[n+]1[O-])C(F)(C(F)(F)F)C(F)(F)C(F)(F)C(F)(F)C(F)(F)C(F)(F)C(F)(F)C(F)(F)F (centres unmarked) [Example E13] | 15.0 | 6000 |  |  |  |
| C[N+](C)(CCO)CCCNC(=O)C(F)(C(F)(F)F)C(F)(F)C(F)(F)C(F)(F)C(F)(F)C(F)(F)C(F)(F)C(F)(F)F (centres unmarked) [Example F4] | 19.0 | 300 |  |  |  |
| O=C(O)C(F)(C(F)(F)F)C(F)(F)C(F)(F)C(F)(F)C(F)(F)C(F)(F)C(F)(F)C(F)(F)C(F)(F)F (centres unmarked) [Example M24, C8 F17 CF(CF3)COO^- K^+] |  |  | 16.4 | 3000 |  |

| Compound | Surf. Tens. ([1]; Table 3) [dynes/cm] | CMC ([1]; Table 3) [ppm] | Surf. Tens. ([1]; Table 5) [dynes/cm] | CMC ([1]; Table 5) [ppm] | other results |
| --- | --- | --- | --- | --- | --- |
| C[N+](C)(CCCNC(=O)C(F)(C(F)(F)F)C(F)(F)C(F)(F)C(F)(F)C(F)(F)C(F)(F)C(F)(F)C(F)(F)F)CCC(=O)[O-] (centres unmarked) [Example K1, C7 F15 CF(CF3)CONH(CH2)3 N^+ (CH3)2C2 H4 COO^-] | 16.6 | 125 |  |  |  |
| O=C(O)C(F)(C(F)(F)F)C(F)(F)C(F)(F)C(F)(F)C(F)(F)C(F)(F)C(F)(F)F (centres unmarked) [Example M22, C6 F13 CF(CF3)COO^- K^+] |  |  | 17.5 | 10000 |  |
| O=C(O)C(F)(C(F)(F)F)C(F)(F)C(F)(F)C(F)(F)C(F)(F)C(F)(F)F (centres unmarked) [Example M28, C5 F11 CF(CF3)COO^- Na^+] |  |  |  |  | Temperature for: 50% loss ([2]; listed as N8): 250 °C; Temperature for: 90% loss ([2]; listed as N8): 263 °C; Temperature for: Onset ([2]; listed as N8): 236 °C |
| O=C(O)C(F)(C(F)(F)C(F)(F)F)C(F)(F)C(F)(F)C(F)(F)C(F)(F)C(F)(F)C(F)(F)F (centres unmarked) [Example M19, C6 F13 CF(C2 F5)COO^- H4 N^+] |  |  |  |  | Temperature for: 50% loss [2]: 171 °C; Temperature for: 90% loss [2]: 188 °C; Temperature for: Onset [2]: 153 °C |
| C[N+](C)(CCCN(CCC[N+](C)(C)CCC(=O)[O-])C(=O)C(F)(C(F)(F)F)C(F)(F)C(F)(F)C(F)(F)C(F)(F)C(F)(F)C(F)(F)C(F)(F)F)CCC(=O)[O-] (centres unmarked) [Example K4] | 23.6 | 100 |  |  |  |
| O=C(O)C(F)(C(F)(F)F)C(F)(F)C(F)(F)C(F)(F)C(F)(F)C(F)(F)F (centres unmarked) [Example M21, C5 F11 CF(CF3)COO^- K^+] |  |  | 22.5 | > 10000 | Temperature for: 50% loss ([2]; listed as N9): 178 °C; Temperature for: 90% loss ([2]; listed as N9): 188 °C; Temperature for: Onset ([2]; listed as N9): 167 °C |
| O=C(O)C(F)(C(F)(F)F)C(F)(F)C(F)(F)C(F)(F)C(F)(F)C(F)(F)C(F)(F)C(F)(F)F (centres unmarked) [Example M20, C7 F15 CF(CF3)COO^- H3 N^+ C2 H4 OH] |  |  | 15.0 | 500 |  |
| O=C(O)C(F)(C(F)(F)F)C(F)(F)C(F)(F)C(F)(F)C(F)(F)C(F)(F)C(F)(F)F (centres unmarked) [Example M25, C6 F13 CF(CF3)COO^- Na^+] |  |  | 19.8 | 10000 |  |
| C[N+](C)([O-])CCCNC(=O)C(F)(C(F)(F)F)C(F)(F)C(F)(F)C(F)(F)C(F)(F)C(F)(F)C(F)(F)C(F)(F)C(F)(F)F (centres unmarked) [Example E4, C8 F17 CF(CF3)CONH(CH2)3 N^+ (CH3)2 O^-] | 16.5 | 20 |  |  |  |
| C[n+]1ccc(C(=O)NCCOC(=O)C(F)(C(F)(F)F)C(F)(F)C(F)(F)C(F)(F)C(F)(F)C(F)(F)C(F)(F)C(F)(F)F)cc1 (centres unmarked) [Example F1] | 15.0 | 500 |  |  |  |
| C[N+](C)([O-])CCCN(CCO)C(=O)C(F)(C(F)(F)F)C(F)(F)C(F)(F)C(F)(F)C(F)(F)C(F)(F)C(F)(F)C(F)(F)F (centres unmarked) [Example E8, C7 F15 CF(CF3)CON(C2 H4 OH)(CH2)3 N^+ (CH3)2 O^-] | 16.6 | 125 |  |  |  |
| C8 F17 CF(CF3)CO(OCH2 CH2)16 OCH3 [Example J1] | 22 | 150 |  |  |  |
| C[N+](C)([O-])CCCNC(=O)C(F)(C(F)(F)F)C(F)(F)C(F)(F)C(F)(F)C(F)(F)C(F)(F)C(F)(F)C(F)(F)C(F)(F)C(F)(F)C(F)(F)F (centres unmarked) [Example E5, C10 F21 CF(CF3)CONH(CH2)3 N^+ (CH3)2 O^-] | 17.1 | 500 |  |  |  |
| O=C(O)C(F)(C(F)(F)F)C(F)(F)C(F)(F)C(F)(F)C(F)(F)C(F)(F)C(F)(F)C(F)(F)F (centres unmarked) [Example M30, C7 F15 CF(CF3)COO^- 1/2[H3 N^+ C2 H4 NHC2 H4 N^+ H3]] |  |  | 16.2 | 3000 |  |
| O=C(O)C(F)(C(F)(F)F)C(F)(F)C(F)(F)C(F)(F)C(F)(F)C(F)(F)C(F)(F)C(F)(F)F (centres unmarked) [Example M23, C7 F15 CF(CF3)COO^- K^+] |  |  | 15.0 | 2500 |  |
| C[N+](C)(CCO)CCCNC(=O)C(F)(C(F)(F)F)C(F)(F)C(F)(F)C(F)(F)C(F)(F)C(F)(F)F (centres unmarked) [Example F3] | 17.0 | 1000 |  |  |  |
| C6 F13 CF(CF3)CON(C3 H6 SO3^-)(CH2)3 N^+ (CH3)2 H [Example K2] | 20.3 | 500 |  |  |  |
